From patent publication US8367648B2, “Substituted 16,17-annellated steroid compounds for use in womens healthcare” (MSD OSS B.V., priority 2009, dated 2013)
Read-outs that look alike come from different tables or passages of the source.

Key:
ERα [1] = target: T1, ERα (Homo sapiens, UniProt P03372); test: In vitro nuclear receptor profile, ERα agonism; assay type: cell-based; conditions: for ERα ago eff: agonist efficacy
T1 sequence (P03372 1-595): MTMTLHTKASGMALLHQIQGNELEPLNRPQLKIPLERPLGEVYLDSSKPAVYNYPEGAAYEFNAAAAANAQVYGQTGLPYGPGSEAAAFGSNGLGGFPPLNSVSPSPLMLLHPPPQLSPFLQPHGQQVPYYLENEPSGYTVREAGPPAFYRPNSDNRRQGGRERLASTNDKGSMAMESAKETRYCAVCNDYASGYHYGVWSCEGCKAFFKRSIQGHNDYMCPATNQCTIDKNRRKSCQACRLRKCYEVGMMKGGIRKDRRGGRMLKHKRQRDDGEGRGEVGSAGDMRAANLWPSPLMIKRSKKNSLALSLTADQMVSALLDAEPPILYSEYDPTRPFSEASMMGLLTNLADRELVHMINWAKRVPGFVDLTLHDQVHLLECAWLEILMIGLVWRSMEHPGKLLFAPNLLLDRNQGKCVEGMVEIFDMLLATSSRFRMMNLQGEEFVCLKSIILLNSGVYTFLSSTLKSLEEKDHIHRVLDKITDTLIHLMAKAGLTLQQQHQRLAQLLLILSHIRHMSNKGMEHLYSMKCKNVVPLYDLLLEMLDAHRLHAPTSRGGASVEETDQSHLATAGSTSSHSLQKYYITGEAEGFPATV

ERα [2] = target: T1, ERα; test: In vitro nuclear receptor profile, ERα antagonism; assay type: cell-based
ERβ [3] = target: T2, ERβ (Homo sapiens, UniProt Q92731); test: In vitro nuclear receptor profile, ERβ agonism; assay type: cell-based; conditions: agonist mode; read-out: ERβ ago EC50
T2 sequence (Q92731 whole entry): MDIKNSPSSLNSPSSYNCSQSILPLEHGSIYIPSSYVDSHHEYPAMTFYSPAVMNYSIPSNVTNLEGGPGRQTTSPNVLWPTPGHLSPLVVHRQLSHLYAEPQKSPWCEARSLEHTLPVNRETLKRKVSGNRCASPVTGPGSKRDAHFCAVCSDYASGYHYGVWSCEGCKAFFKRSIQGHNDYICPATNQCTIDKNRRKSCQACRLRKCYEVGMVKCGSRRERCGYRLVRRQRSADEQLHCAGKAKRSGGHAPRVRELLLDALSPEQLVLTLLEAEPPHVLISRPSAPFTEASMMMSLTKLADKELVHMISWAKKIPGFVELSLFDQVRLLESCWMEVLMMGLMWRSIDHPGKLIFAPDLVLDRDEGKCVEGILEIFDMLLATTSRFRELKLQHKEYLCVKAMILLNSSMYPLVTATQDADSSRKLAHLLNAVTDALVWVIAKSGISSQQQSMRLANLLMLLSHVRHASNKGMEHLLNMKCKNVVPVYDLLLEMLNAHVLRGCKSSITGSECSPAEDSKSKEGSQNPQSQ

ERβ [4] = target: T2, ERβ; test: In vitro nuclear receptor profile, ERβ antagonism; assay type: cell-based; conditions: for ERβ ant anteff: antagonist efficacy; for IC50: antagonist mode, read-out: ERβ ant IC50
[5] = target: T3, progesterone receptor B (PR-B) (Homo sapiens, UniProt P06401); test: In vitro nuclear receptor profile, PR-B agonism; assay type: cell-based
T3 sequence (P06401 1-933): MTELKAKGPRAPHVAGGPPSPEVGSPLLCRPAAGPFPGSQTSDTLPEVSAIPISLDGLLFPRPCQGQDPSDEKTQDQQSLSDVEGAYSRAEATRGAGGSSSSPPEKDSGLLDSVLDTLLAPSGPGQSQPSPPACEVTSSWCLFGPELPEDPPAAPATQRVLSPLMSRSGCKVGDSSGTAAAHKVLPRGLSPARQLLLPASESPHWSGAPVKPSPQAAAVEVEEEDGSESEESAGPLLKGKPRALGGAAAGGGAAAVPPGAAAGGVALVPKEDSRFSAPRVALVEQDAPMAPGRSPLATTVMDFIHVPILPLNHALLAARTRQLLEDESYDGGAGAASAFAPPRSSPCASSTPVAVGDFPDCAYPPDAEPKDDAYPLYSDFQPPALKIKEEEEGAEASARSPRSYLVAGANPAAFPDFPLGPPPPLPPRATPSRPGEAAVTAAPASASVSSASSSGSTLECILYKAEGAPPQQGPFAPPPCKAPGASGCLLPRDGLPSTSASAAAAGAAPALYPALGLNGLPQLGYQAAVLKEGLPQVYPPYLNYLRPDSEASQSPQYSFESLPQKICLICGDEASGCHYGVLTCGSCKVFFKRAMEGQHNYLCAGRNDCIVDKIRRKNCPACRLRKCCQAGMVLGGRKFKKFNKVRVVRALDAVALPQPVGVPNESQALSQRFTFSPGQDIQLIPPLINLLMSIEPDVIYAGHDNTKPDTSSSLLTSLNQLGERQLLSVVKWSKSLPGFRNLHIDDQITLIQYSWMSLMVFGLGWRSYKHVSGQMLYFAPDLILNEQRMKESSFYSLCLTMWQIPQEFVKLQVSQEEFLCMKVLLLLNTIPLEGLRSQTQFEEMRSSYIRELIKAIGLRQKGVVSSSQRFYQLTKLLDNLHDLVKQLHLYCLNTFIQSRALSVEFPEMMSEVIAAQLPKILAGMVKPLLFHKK

[6] = target: T3, progesterone receptor B (PR-B); test: In vitro nuclear receptor profile, PR-B antagonism; assay type: cell-based; conditions: for PR-B ant anteff: antagonist efficacy; for IC50: antagonist mode, read-out: PR-B ant IC50
PR-A [7] = target: T4, PR-A (Homo sapiens, UniProt P06401); test: In vitro nuclear receptor profile, PR-A agonism; assay type: cell-based; conditions: for EC50: agonist mode, read-out: PR-A ago EC50
T4 sequence (P06401 1-769 isoform P06401-2): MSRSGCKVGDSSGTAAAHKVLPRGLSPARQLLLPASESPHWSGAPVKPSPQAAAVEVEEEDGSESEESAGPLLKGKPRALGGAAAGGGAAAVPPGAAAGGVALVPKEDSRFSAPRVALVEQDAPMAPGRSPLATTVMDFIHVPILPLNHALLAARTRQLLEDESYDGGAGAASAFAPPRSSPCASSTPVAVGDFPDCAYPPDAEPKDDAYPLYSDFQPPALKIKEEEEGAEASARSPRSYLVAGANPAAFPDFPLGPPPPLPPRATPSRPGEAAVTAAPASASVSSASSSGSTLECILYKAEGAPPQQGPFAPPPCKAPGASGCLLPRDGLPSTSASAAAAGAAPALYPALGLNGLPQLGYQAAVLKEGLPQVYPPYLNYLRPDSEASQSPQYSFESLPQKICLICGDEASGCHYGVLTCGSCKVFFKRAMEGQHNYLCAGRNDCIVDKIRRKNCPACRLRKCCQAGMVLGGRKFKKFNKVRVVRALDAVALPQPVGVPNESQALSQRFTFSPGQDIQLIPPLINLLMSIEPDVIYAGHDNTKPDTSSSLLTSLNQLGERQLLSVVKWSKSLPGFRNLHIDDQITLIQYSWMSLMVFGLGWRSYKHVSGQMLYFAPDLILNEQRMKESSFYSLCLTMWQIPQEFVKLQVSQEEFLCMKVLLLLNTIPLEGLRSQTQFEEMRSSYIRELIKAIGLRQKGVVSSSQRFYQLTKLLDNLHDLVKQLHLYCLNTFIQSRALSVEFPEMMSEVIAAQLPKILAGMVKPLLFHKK

PR-A [8] = target: T4, PR-A; test: In vitro nuclear receptor profile, PR-A antagonism; assay type: cell-based; conditions: for PR-A ant anteff: antagonist efficacy; for IC50: antagonist mode, read-out: PR-A ant IC50
androgen receptor (AR) = target: T5, androgen receptor (AR) (Homo sapiens, UniProt P10275); test: Androgen receptor antagonism in vitro; assay type: cell-based; conditions: antagonist; read-out: IC50 as antagonist for the androgen receptor (AR)
T5 sequence (P10275 1-920): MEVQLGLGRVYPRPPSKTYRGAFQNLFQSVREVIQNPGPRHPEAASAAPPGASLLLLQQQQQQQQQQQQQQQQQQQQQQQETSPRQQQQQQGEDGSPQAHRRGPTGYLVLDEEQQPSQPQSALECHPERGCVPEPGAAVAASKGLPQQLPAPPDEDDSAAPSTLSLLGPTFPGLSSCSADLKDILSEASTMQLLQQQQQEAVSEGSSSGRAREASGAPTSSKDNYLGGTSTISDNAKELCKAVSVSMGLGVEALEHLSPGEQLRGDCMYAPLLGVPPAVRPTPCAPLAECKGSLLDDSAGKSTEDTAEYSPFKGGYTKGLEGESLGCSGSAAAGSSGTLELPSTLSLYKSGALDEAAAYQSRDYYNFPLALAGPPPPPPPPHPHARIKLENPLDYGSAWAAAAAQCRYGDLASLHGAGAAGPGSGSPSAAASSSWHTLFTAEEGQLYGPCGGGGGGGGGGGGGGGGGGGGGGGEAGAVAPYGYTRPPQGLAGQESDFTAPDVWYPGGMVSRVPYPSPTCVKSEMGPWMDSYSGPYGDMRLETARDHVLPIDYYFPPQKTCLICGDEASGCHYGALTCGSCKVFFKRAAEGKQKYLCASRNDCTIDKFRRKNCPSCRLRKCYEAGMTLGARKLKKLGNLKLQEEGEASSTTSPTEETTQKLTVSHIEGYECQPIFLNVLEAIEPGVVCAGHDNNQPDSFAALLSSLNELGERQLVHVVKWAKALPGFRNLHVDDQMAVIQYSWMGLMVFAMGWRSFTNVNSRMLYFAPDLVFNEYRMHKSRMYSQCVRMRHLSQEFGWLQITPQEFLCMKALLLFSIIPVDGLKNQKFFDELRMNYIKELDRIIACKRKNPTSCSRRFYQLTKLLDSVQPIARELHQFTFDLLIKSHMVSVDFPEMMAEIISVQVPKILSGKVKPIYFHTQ

[9] = 4-week phase I study, plasma exposure and endometrial biopsies; assay type: in vivo, human; conditions: plasma; female human volunteers; formed by metabolism from oral 10 mg daily Org 41621, 4 weeks; read-out: blood plasma level Cmax
endometrium = test: as above; assay type: in vivo, human; conditions: biopsies on day 29, female human volunteers
ovulation [10] = test: Ovulation inhibition in intact cycling female monkeys; assay type: in vivo, Macaca arctoides and Macaca fascicularis; conditions: 21 days once-a-day oral dosing in gelatine/mannitol
Experimental: The minimal active dose (MAD) for ovulation inhibition upon oral dosing in gelatine/mannitol was established at <=0.1 mg/kg per day.

ovulation [11] = test: Ovulation inhibition in intact cycling female rats; assay type: in vivo, rat
vaginal tissue = test: Allen-Doisy (rat); assay type: in vivo
bone mineral density = test: AOST BMD (rat); assay type: in vivo
[12] = tested on: estrogen receptors in the CNS; test: Lordosis model (facilitation of female sexual behaviour); assay type: in vivo
[13] = tested on: LH/FSH, uterine tissue, vaginal tissue, cholesterol metabolism, bone; test: 4-week multiple dose study in ovariectomized female rats; assay type: in vivo, rat
Solubility in water = assay type: physicochemical; conditions: in comparison to Org 41621
Source text: As the diseases in which the compounds can be used are in the area of women's health care the vaginal route of administration is also contemplated. A medicine can be formulated in the form of a device for vaginal drug delivery such as in admixture with a flexible polymer for a removable intrauterine device or a removable vaginal device, for example in the form of a ring. Polymers or other additives can also be used for a parenteral implant, such as a subcutaneous implant for extended release of a drug according to the invention. As such, extended release formulations or other formulations aimed at particular absorption profiles are also within the scope of the invention. […] This offers an advantage for uses in the manufacture of medicines wherein higher solubility is desirable, such as a drinkable or injectable formulation.

[14] = rat, in vivo
[15] = Embryofetal toxicity study in pregnant rats

SMILES: CCC[C@@H]1Cc2cc(O)ccc2[C@H]2CC[C@@]3(C)[C@@H](C[C@H]4CCC(=O)C[C@]43O)[C@H]12 [Compound 10, (7α,16β,17α)-3,17-dihydroxy-7-propyl-16,24-cyclo-19,21-dinorchola-1,3,5(10)-trien-22-one]
- ERα ant anteff (ERα [2]; antagonist efficacy): 0.47
- EC50 (ERβ [3]): > 10000 nM
- activity at ERβ in words (ERβ [4]): full antagonist
- ERβ ant anteff (ERβ [4]): 0.83
- IC50 (ERβ [4]): 8.4 nM
- PR-B ago eff ([5]; agonist efficacy): 0.49
- activity at PR-B in words ([5]; nanomolar activity): partial (ant)agonist
- EC50 ([5]; read-out: EC50 for progesterone receptor B (PR-B)): 3.8 nM
- PR-B ant anteff [6]: 0.55
- IC50 [6]: 3.7 nM
- PR-A ago eff (PR-A [7]; agonist efficacy): 0.46
- EC50 (PR-A [7]): 30 nM
- activity at PR-A in words (PR-A [7]; nanomolar activity): partial (ant)agonist
- PR-A ant anteff (PR-A [8]): 0.54
- IC50 (PR-A [8]): 27 nM
- IC50 (androgen receptor (AR)): 125 nM
- Cmax [9]: 16 nM
- endometrial histopathology scores (endometrium): mostly atrophic or inactive endometrium
- endometrial hyperplasia (endometrium): no signs of hyperplasia
- minimal active dose (MAD) for ovulation inhibition (ovulation [10]): <= 0.1 mg/kg per day
- minimal active dose (MAD) to inhibit ovulation (ovulation [11]; intact regularly cycling female rats): 0.1 mg/kg per day
- Ovulation Inhibition (rat) MAD p.o. (ovulation [11]; rat, p.o.): 0.10 mg/kg · day
- Allen-Doisy (rat) MAD p.o. (vaginal tissue): 0.15 mg/kg · day
- AOST BMD (rat) MAD p.o. (bone mineral density): 0.12 mg/kg · day
- Lordosis (rat) MAD p.o. ([12]; p.o.): 0.14 mg/kg · day
- response in the lordosis model ([12]; rat): near full agonist response
- behaviour on vaginal tissue, cholesterol metabolism and bone (bone mineral density, osteocalcin) [13]: behaves as an estrogen receptor agonist
- circulating levels of LH and FSH ([13]; 4 weeks, oral and subcutaneous in gelatine/mannitol): effectively suppress
- stimulation of rat uterine tissue (uterine weight) ([13]; daily oral dosing for 4 weeks, FIG. 1): only mildly stimulates
- solubility in water (Solubility in water): very well soluble in water
- dosages inducing early resorptions ([14]; female, po): > 0.3 mg/kg
- post implantation loss ([14]; female, po, 0.3 mg/kg): approx. 80%
- fetal effects ([14]; 0.3 mg/kg): No effects
- teratogenicity ([14]; 0.3 mg/kg): no evidence of teratogenicity
- minor defects (wavy ribs) incidence ([15]; 0.1 mg/kg): 4/153
- major fetal defects ([15]; treated groups): No major defects

SMILES: CCC[C@@H]1Cc2cc(O)ccc2[C@H]2CC[C@@]3(C)[C@@H](C[C@H]4CC[C@H](O)C[C@]43O)[C@H]12 [Org 41621, (7α,16β,17α,22β)-7-propyl-16,24-cyclo-19,21-dinorchola-1,3,5(10)-triene-3,17,22-triol, reference compound]
- ERα ago eff (ERα [1]): 0.95
- EC50 (ERα [1]; agonist mode, read-out: ERα ago EC50): 0.28 nM
- IC50 (ERα [2]; antagonist mode, read-out: ERα ant IC50): > 1000 nM
- EC50 (ERβ [3]): > 100 nM
- ERβ ant anteff (ERβ [4]): 0.89
- IC50 (ERβ [4]): 3.8 nM
- EC50 ([5]; agonist mode, read-out: PR-B ago EC50): > 100 nM
- PR-B ant anteff [6]: 0.74
- IC50 [6]: 20.8 nM
- EC50 (PR-A [7]): > 100 nM
- PR-A ant anteff (PR-A [8]): 0.85
- IC50 (PR-A [8]): 58.3 nM
- major fetal abnormalities (ribs, humerus, scapula) ([14]; female, po, 0.09 mg/kg): 3/273
- post implantation loss ([14]; female, po, 0.09 mg/kg): 15%
- major fetal abnormalities (ribs, humerus, scapula) ([14]; female, po, 0.15 mg/kg): 11/216
- post implantation loss ([14]; female, po, 0.15 mg/kg): 24%
